{"source": "patent US7718715B2", "about": "“pH-modified latex comprising a synergistic combination of biocides” (S.C. Johnson & Son, Inc., priority 2004, dated 2010)", "key": {"[1]": {"tested_on": "C. albicans & A. niger", "assay": "Challenge Test end point on yeast and mold and Synergy Index (Kull)", "assay_type": "cell-based", "conditions": "Dowicil 75 acting alone (QA); test stabilized acrylic latex A", "procedure": "Each of the 25-g samples were inoculated or challenged with 0.10 ml of the bacterial inoculum, the yeast inoculum, and the mold inoculum respectively on day-0 and day-14. All samples were stored at ambient temperature. Each sample (10 microliter) was streaked on appropriate agar plates (bacteria on Tryptic Soy Agar (Difco Laboratories, Detroit, Mich.) plates with neutralizer and yeast/mold on Potato Dextrose Agar (Difco Laboratories, Detroit, Mich.) plates with neutralizer) on day-1, day-2, day-3, day-7, day-14, day-15, day-16, day-17, day-21, and day-28 to test for survivors. Streaked plates were incubated at appropriate temperature and time (48-hr at 35±2° C. for bacteria and 72-hr at 28±2° C. for yeast/mold). […] Plates were read after incubation time. […]\nSynergism was determined by the method described by F. C. […] Eisman, H. D. Sylwestrowicz, and R. L. Mayer in Applied Microbiology, Volume 9, pages 538-541, 1961 using the ratio determined by • Synergy Index (SI)=Qa/QA+Qb/QB=1 is additivity, <1 is synergism, and >1 is antagonism • where, • Qa=concentration of compound A, in the mixture, producing an end point • QA=concentration of compound A, acting alone, producing an end point • Qb=concentration of compound B, in the mixture, producing an end point • QB=concentration of compound B, acting alone, producing an end point"}, "[2]": {"tested_on": "Escherichia coli #11229, Pseudomonas aeruginosa #15442", "assay": "Challenge Test (Antimicrobial Effectiveness Test), bacterial inoculum (1:1 mixture)", "assay_type": "cell-based, E. coli & P. aeruginosa", "conditions": "stabilized acrylic latex A", "procedure": "The following cultures were obtained from American Type Culture Collection (ATCC) at 10801 University Boulevard, Manassas, Va. 20110-2209: Escherichia coli #11229, Pseudomonas aeruginosa #15442, Candida albicans #10231, Aspergillus niger #6275. The bacterial inoculum was 0.10 ml of a 1:1 mixture of the 24-hr±4 hr culture of E. coli and P. aeruginosa in 25 grams of sample to give approximately 4×10^6 CFU/g. Both E. coli culture and the P. aeruginosa culture were grown in Nutrient Broth (Difco Laboratories, Detroit, Mich.) at 35° C. Each of the 25-g samples were inoculated or challenged with 0.10 ml of the bacterial inoculum, the yeast inoculum, and the mold inoculum respectively on day-0 and day-14. All samples were stored at ambient temperature. Each sample (10 microliter) was streaked on appropriate agar plates (bacteria on Tryptic Soy Agar (Difco Laboratories, Detroit, Mich.) plates with neutralizer and yeast/mold on Potato Dextrose Agar (Difco Laboratories, Detroit, Mich.) plates with neutralizer) on day-1, day-2, day-3, day-7, day-14, day-15, day-16, day-17, day-21, and day-28 to test for survivors. Streaked plates were incubated at appropriate temperature and time (48-hr at 35±2° C. for bacteria and 72-hr at 28±2° C. for yeast/mold). On day-14, each sample was re-inoculated with appropriate inoculum after streaking on agar plates. Plates were read after incubation time. Recovery of surviving organisms at 14 days was a failing result for the challenge test. Biocides were always added after the reaction has been completed and after the batch has been cooled to <50° C. The desired temperature was dependent on the specific biocide. Many biocides become deactivated if exposed to high temperatures for an extended time. Each biocide was diluted with about 5× its weight with DI water and slowly added to the batch with good agitation. The dilution is to prevent the biocide from shocking the latex. The batch was mixed for a minimum of 20 minutes after the biocide was added to ensure good incorporation. If any temporary destabilization to the latex had occurred, it had time to recover prior to filtration. The Challenge Test is a qualitative laboratory procedure used to differentiate poorly and marginally preserved products from well-preserved products. Products are intentionally inoculated with test organisms and then evaluated by use of streak plating technique to determine if microbial reduction has been attained."}, "[3]": {"tested_on": "Candida albicans #10231", "assay": "Challenge Test (Antimicrobial Effectiveness Test), yeast inoculum", "assay_type": "cell-based", "parameters": "key to Challenge Test result: Yeast C. albicans: Fail: Recovery of surviving organisms at 14 days was a failing result for the challenge test", "conditions": "for Challenge Test result: Yeast C. albicans: stabilized acrylic latex A", "procedure": "The following cultures were obtained from American Type Culture Collection (ATCC) at 10801 University Boulevard, Manassas, Va. 20110-2209: Escherichia coli #11229, Pseudomonas aeruginosa #15442, Candida albicans #10231, Aspergillus niger #6275.\nThe yeast inoculum was 0.10 ml of a 72-hr±4 hr culture of C. albicans in 25 grams of sample to give approximately 2×10^5 CFU/g. The C. albicans culture was grown in Potato Dextrose Broth (Difco Laboratories, Detroit, Mich.) at 28° C.\nEach of the 25-g samples were inoculated or challenged with 0.10 ml of the bacterial inoculum, the yeast inoculum, and the mold inoculum respectively on day-0 and day-14. All samples were stored at ambient temperature. Each sample (10 microliter) was streaked on appropriate agar plates (bacteria on Tryptic Soy Agar (Difco Laboratories, Detroit, Mich.) plates with neutralizer and yeast/mold on Potato Dextrose Agar (Difco Laboratories, Detroit, Mich.) plates with neutralizer) on day-1, day-2, day-3, day-7, day-14, day-15, day-16, day-17, day-21, and day-28 to test for survivors. Streaked plates were incubated at appropriate temperature and time (48-hr at 35±2° C. for bacteria and 72-hr at 28±2° C. for yeast/mold). On day-14, each sample was re-inoculated with appropriate inoculum after streaking on agar plates. Plates were read after incubation time. Recovery of surviving organisms at 14 days was a failing result for the challenge test.\nBiocides were always added after the reaction has been completed and after the batch has been cooled to <50° C. The desired temperature was dependent on the specific biocide. Many biocides become deactivated if exposed to high temperatures for an extended time. Each biocide was diluted with about 5× its weight with DI water and slowly added to the batch with good agitation. The dilution is to prevent the biocide from shocking the latex. The batch was mixed for a minimum of 20 minutes after the biocide was added to ensure good incorporation. If any temporary destabilization to the latex had occurred, it had time to recover prior to filtration.\nThe Challenge Test is a qualitative laboratory procedure used to differentiate poorly and marginally preserved products from well-preserved products. Products are intentionally inoculated with test organisms and then evaluated by use of streak plating technique to determine if microbial reduction has been attained."}, "[4]": {"tested_on": "Aspergillus niger #6275", "assay": "Challenge Test (Antimicrobial Effectiveness Test), mold inoculum", "assay_type": "cell-based", "conditions": "stabilized acrylic latex A", "procedure": "The following cultures were obtained from American Type Culture Collection (ATCC) at 10801 University Boulevard, Manassas, Va. 20110-2209: Escherichia coli #11229, Pseudomonas aeruginosa #15442, Candida albicans #10231, Aspergillus niger #6275. The mold inoculum was 0.10 ml of A. niger culture specimen in 25 grams of sample to give approximately 2×10^5 CFU/g. The culture specimen was obtained from 7-day-old A. niger culture grown on Sabouraud Dextrose Agar (Difco Laboratories, Detroit, Mich.) with 0.2% Triton X-100 in 0.85% saline. Each of the 25-g samples were inoculated or challenged with 0.10 ml of the bacterial inoculum, the yeast inoculum, and the mold inoculum respectively on day-0 and day-14. All samples were stored at ambient temperature. Each sample (10 microliter) was streaked on appropriate agar plates (bacteria on Tryptic Soy Agar (Difco Laboratories, Detroit, Mich.) plates with neutralizer and yeast/mold on Potato Dextrose Agar (Difco Laboratories, Detroit, Mich.) plates with neutralizer) on day-1, day-2, day-3, day-7, day-14, day-15, day-16, day-17, day-21, and day-28 to test for survivors. Streaked plates were incubated at appropriate temperature and time (48-hr at 35±2° C. for bacteria and 72-hr at 28±2° C. for yeast/mold). On day-14, each sample was re-inoculated with appropriate inoculum after streaking on agar plates. Plates were read after incubation time. Recovery of surviving organisms at 14 days was a failing result for the challenge test. Biocides were always added after the reaction has been completed and after the batch has been cooled to <50° C. The desired temperature was dependent on the specific biocide. Many biocides become deactivated if exposed to high temperatures for an extended time. Each biocide was diluted with about 5× its weight with DI water and slowly added to the batch with good agitation. The dilution is to prevent the biocide from shocking the latex. The batch was mixed for a minimum of 20 minutes after the biocide was added to ensure good incorporation. If any temporary destabilization to the latex had occurred, it had time to recover prior to filtration. The Challenge Test is a qualitative laboratory procedure used to differentiate poorly and marginally preserved products from well-preserved products. Products are intentionally inoculated with test organisms and then evaluated by use of streak plating technique to determine if microbial reduction has been attained."}, "[5]": {"conditions": "0.20% Dowicil 75, 0.00% Bronopol, DN 12%, pH 6.3"}, "[6]": {"conditions": "0.30% Dowicil 75, 0.00% Bronopol, DN 4%, pH 5.7"}, "[7]": {"conditions": "0.40% Dowicil 75, 0.00% Bronopol, DN 4%, pH 5.75"}, "[8]": {"conditions": "0.40% Dowicil 75, 0.00% Bronopol, DN 17%, pH 6.5"}}}
{"smiles": "ClC=CC[N+]12CN3CN(CN(C3)C1)C2.[Cl-]", "note": "[Dowicil 75, 1-(3-chloroallyl)-3,5,7-triaza-1-azoniaadamantane chloride]", "values": [{"measurement": "Compound A end-point in %", "setting": "[1]", "result": ">0.4", "unit": "%"}, {"measurement": "Challenge Test result: Bacteria E. coli & P. aeruginosa", "setting": "[2]; [5]", "result": "Pass"}, {"measurement": "Challenge Test result: Bacteria E. coli & P. aeruginosa", "setting": "[2]; [6]", "result": "Pass"}, {"measurement": "Challenge Test result: Bacteria E. coli & P. aeruginosa", "setting": "[2]; [7]", "result": "Pass"}, {"measurement": "Challenge Test result: Bacteria E. coli & P. aeruginosa", "setting": "[2]; [8]", "result": "Pass"}, {"measurement": "Challenge Test result: Yeast C. albicans", "setting": "[3]; [5]", "result": "Fail"}, {"measurement": "Challenge Test result: Yeast C. albicans", "setting": "[3]; [6]", "result": "Pass"}, {"measurement": "killing of the yeast (C. albicans)", "setting": "[3]; 0.4% DOWICIL 75, stabilized acrylic latex A with DN at 17%", "result": "failed to kill"}, {"measurement": "Challenge Test result: Yeast C. albicans", "setting": "[3]; [7]", "result": "Pass"}, {"measurement": "Challenge Test result: Yeast C. albicans", "setting": "[3]; [8]", "result": "Fail"}, {"measurement": "control of Candida albicans", "setting": "[3]; maximum allowable level, test stabilized acrylic latex", "result": "failed to control"}, {"measurement": "Challenge Test result: Mold A. niger", "setting": "[4]; [5]", "result": "Pass"}, {"measurement": "Challenge Test result: Mold A. niger", "setting": "[4]; [6]", "result": "Pass"}, {"measurement": "Challenge Test result: Mold A. niger", "setting": "[4]; [7]", "result": "Pass"}, {"measurement": "Challenge Test result: Mold A. niger", "setting": "[4]; [8]", "result": "Pass"}]}
